Values joined by “and” are separate entries in the source; they are usually repeats but may differ in a detail not shown here. Identical values can stand only once. Blank lines part the entries; values can stand above or below the substance they belong to.
How the values were obtained:
[1] = tested on: HLA-A2.1 positive ML-2 cells; assay: Cytotoxicity of peptide-specific CTLs against ML-2 cells (51Cr release); format: cell-based, human; settings: for Cytotoxicity of peptide-specific CTLs against ML-2 cells (%): target:effector 1:60
Text: The present example illustrates that that the present peptides are capable of inducing a T-lymphocyte response. In this example, antigen presenting cells were pulsed at 150 micrograms of each peptide per 1 million antigen presenting cells with the following amino acid sequences: […]

HLA-A2.1 = HLA-A2.1 (Homo sapiens, UniProt P04439, D140Y/D185E/D98H/E176V/E277Q/G131W/G231S/I119V/I121R/I166T/I218V/L300P/L318F/N151K/N90K/P208A/P217A/Q86G/Q94H/R138H/R169H/T345S); assay: Peptide binding to HLA-A2.1+ T2 cells under Brefeldin A treatment (peptide/HLA-A2.1 complex stability)
dendritic cells = assay: Phenotypic analysis of dendritic cells matured with maturation factors; format: cell-based, human; settings: DCs matured during last three days of culture
Procedure: Immature DCs were generated according to modified protocols of Romani et al. (1994) and Bakker et al. (1995). Briefly, fresh or frozen/thawed CD14+ cells were cultured in RPMI 1640 medium (Gibco-Life Technologies) supplemented with 10% FCS, 1,000 U/ml GM-CSF and 1,000 U/ml IL-4. The cell cultures were fed with fresh medium and GM-CSF and IL-4 every other day and cell differentiation was monitored by light microscopy. On day 7, the cultures were supplemented with different combinations of DC maturation factors such as lipopolysaccharide (100 U/ml), TNF-α (10 ng/ml), or IFN-α (1,000 U/ml) plus TNF-α (10 ng/ml). After three days of incubation, mature DCs (mDC) were harvested and evaluated for their phenotypes by flow cytometry. The maturation factor(s) yielding optimal DC maturation was determined and used to generate mDCs for peptide pulsing in upcoming studies. In this example, immature DCs obtained by the culture of CD 14+ monocytes with GM-CSF (1,000 U/ml) and IL-4 (1,000 U/ml) were induced to undergo maturation by incubation with LPS (100 Units/ml), TNF-α10 ng/ml) or TNF-α (10 ng/ml)+IFN-α50 ng/ml) during the final three days of the culture period. […] The highest up-regulation of the co-stimulatory (CD80 and CD86) and HLA-A2.1 MHC class I molecules was detected on DCs treated with TNF-α+IFN-α (Table 5).

[2] = tested on: effector cells (T lymphocytes); settings: APC: T2; 2 stims

binding to HLA-A2.1 on T2 cells, in words (HLA-A2.1): good and prolonged stable binding
Substance: ALISGDSPV (listed as Homo sapiens) [SEQ ID NO: 16, modified CD33 peptide]
immunogenicity in similar experiments [1]: immunogenic

Substance: TNF-α
CD80 expression, mean channel fluorescence (MCF) (dendritic cells): 107
CD86 expression, mean channel fluorescence (MCF) (dendritic cells): 96
HLA-A2.1 expression, mean channel fluorescence (MCF) (dendritic cells): 475

Substance: YIISGDSPV (listed as Homo sapiens) [SEQ ID NO: 3, modified CD33 peptide]
Cytotoxicity of peptide-specific CTLs against ML-2 cells (%) ([1]; APC: DC, 2 stimulations, different donors): 37%

binding to HLA-A2.1 on T2 cells, in words (HLA-A2.1): good and prolonged stable binding
Substance: YIISGISPV (listed as Homo sapiens) [SEQ ID NO: 6, modified CD33 peptide]

Substance: YLALCLCLI (listed as Homo sapiens) [SEQ ID NO: 1]
Cytotoxicity of peptide-specific CTLs against ML-2 cells (%) ([1]; APC: T2, 2 stimulations, donors F, G): 21% and 34%
Cytotoxicity of peptide-specific CTLs against ML-2 cells (%) ([1]; APC: T2, 3 stimulations, donors F, G): 36% and 64%
Expression level of CD4 (T helper), mean fluorescence intensity [2]: 81 and 57
Expression level of CD45RO (Memory), mean fluorescence intensity [2]: 1262 and 1432
Expression level of CD95 (Activation), mean fluorescence intensity [2]: 99 and 102

binding to HLA-A2.1 on T2 cells, in words (HLA-A2.1): good and prolonged stable binding
Substance: YLISGDSPV (listed as Homo sapiens) [SEQ ID NO: 7, modified CD33 peptide]
